Reference: PubChem BioAssay AID330 (DTP/NCI, 2004)
Values joined by “and” are separate entries in the source; they are usually repeats but may differ in a detail not shown here. Equal entries are not always repeated. Toxic doses and inconclusive results are not listed.

Test system: P388 leukemia ip, CD2F1 mice, survival T/C
Experiment: NCI In Vivo Anticancer Drug Screen. Data for tumor model P388 Leukemia (intraperitoneal) in CD2F1 (CDF1) mice
Settings: endpoint: median survival time, higher = longer survival
Method in brief: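 Mice carrying the transplanted tumor received test compound or vehicle. Survival was recorded in each group, and the value is the treated-group measurement divided by that of the vehicle-treated control group.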

[1] = dose: 50.0 mg/kg/injection, schedule: Q01DX005 (ip), vehicle: saline with Tween-80
[2] = dose: 100.0 mg/kg/injection, schedule: Q01DX005 (ip), vehicle: saline with Tween-80
[3] = dose: 60.0 mg/kg/injection, schedule: Q01DX005 (ip), vehicle: saline with Tween-80
[4] = dose: 60.0 mg/kg/injection, schedule: Q01DX005 (ip), vehicle: Klucel (hydroxypropylcellulose) (HPC)
[5] = dose: 120.0 mg/kg/injection, schedule: Q01DX005 (ip), vehicle: Klucel (hydroxypropylcellulose) (HPC)

With `CC1=CC(=O)c2c(O)cccc2C1=O` the T/C (dose: 2.0 mg/kg/injection, schedule: Q01DX009 (ip), vehicle: Klucel (hydroxypropylcellulose) (HPC)) was 108 % of control, the T/C (dose: 2.0 mg/kg/injection, schedule: Q01DX009 (ip), vehicle: saline with Tween-80) was 110 % of control and the T/C (dose: 4.0 mg/kg/injection, schedule: Q01DX009 (ip), vehicle: Klucel (hydroxypropylcellulose) (HPC)) was 113 % of control and 116 % of control. The T/C (dose: 4.0 mg/kg/injection, schedule: Q01DX009 (ip), vehicle: saline with Tween-80) was 114 % of control and the T/C (dose: 8.0 mg/kg/injection, schedule: Q01DX009 (ip), vehicle: Klucel (hydroxypropylcellulose) (HPC)) was 122 % of control.
`C=CC(C)(C)n1cc(C2=C(O)C(=O)C(c3cn(C(C)(C)C=C)c4ccccc34)=C(O)C2=O)c2ccccc21` was tested, and the T/C (dose: 2.5 mg/kg/injection, schedule: Q01DX009 (ip), vehicle: carboxymethylcellulose (CMC)) was 101 % of control, the T/C (dose: 5.0 mg/kg/injection, schedule: Q01DX009 (ip), vehicle: carboxymethylcellulose (CMC)) was 103 % of control and 88 % of control and the T/C (dose: 6.25 mg/kg/injection, schedule: Q01DX009 (ip), vehicle: Klucel (hydroxypropylcellulose) (HPC)) was 99 % of control. For the same compound, the T/C (dose: 10.0 mg/kg/injection, schedule: Q01DX009 (ip), vehicle: carboxymethylcellulose (CMC)) was 108 % of control and 93 % of control, the T/C (dose: 12.5 mg/kg/injection, schedule: Q01DX009 (ip), vehicle: Klucel (hydroxypropylcellulose) (HPC)) was 100 % of control and the T/C (dose: 18.0 mg/kg/injection, schedule: Q01DX009 (ip), vehicle: Klucel (hydroxypropylcellulose) (HPC)) was 95 % of control. For the same compound, the T/C (dose: 20.0 mg/kg/injection, schedule: Q01DX009 (ip), vehicle: carboxymethylcellulose (CMC)) was 120 % of control and 90 % of control, the T/C (dose: 25.0 mg/kg/injection, schedule: Q01DX009 (ip), vehicle: Klucel (hydroxypropylcellulose) (HPC)) was 99 % of control and the T/C (dose: 26.0 mg/kg/injection, schedule: Q01DX009 (ip), vehicle: Klucel (hydroxypropylcellulose) (HPC)) was 104 % of control. For the same compound, the T/C (dose: 40.0 mg/kg/injection, schedule: Q01DX009 (ip), vehicle: Klucel (hydroxypropylcellulose) (HPC)) was 90 % of control, the T/C (dose: 40.0 mg/kg/injection, schedule: Q01DX009 (ip), vehicle: carboxymethylcellulose (CMC)) was 114 % of control and the T/C (dose: 50.0 mg/kg/injection, schedule: Q01DX009 (ip), vehicle: Klucel (hydroxypropylcellulose) (HPC)) was 100 % of control. The T/C (dose: 100.0 mg/kg/injection, schedule: Q01DX009 (ip), vehicle: Klucel (hydroxypropylcellulose) (HPC)) was 113 % of control.
With `CC1(C)CN2C(c3ccccc3)=NN(c3ccccc3)C2(C)C1` (stereo not given) the T/C (dose: 100.0 mg/kg/injection, schedule: Q01DX001 (ip), vehicle: saline with Tween-80) was 98 % of control, the T/C (dose: 200.0 mg/kg/injection, schedule: Q01DX001 (ip), vehicle: saline with Tween-80) was 99 % of control and the T/C (dose: 400.0 mg/kg/injection, schedule: Q01DX001 (ip), vehicle: saline with Tween-80) was 100 % of control.
With `CNC(=O)OCc1c(COC(=O)NC)c(-c2ccc(Cl)c(Cl)c2)n2c1Cc1ccccc1C2` the T/C (dose: 25.0 mg/kg/injection, schedule: Q01DX009 (ip), vehicle: distilled water + Tween-80) was 153 % of control and 160 % of control, the T/C (dose: 50.0 mg/kg/injection, schedule: Q01DX009 (ip), vehicle: distilled water + Tween-80) was 155 % of control and 195 % of control and the T/C (dose: 100.0 mg/kg/injection, schedule: Q01DX009 (ip), vehicle: distilled water + Tween-80) was 171 % of control and 189 % of control. For the same compound, the T/C (dose: 200.0 mg/kg/injection, schedule: Q01DX009 (ip), vehicle: distilled water + Tween-80) was 117 % of control and 97 % of control.
With `Cc1cccc(O)c1C(=O)OC(C)c1cccc2nc3c(C(=O)O)cccc3nc12` (stereo not given) the T/C (dose: 0.5 mg/kg/injection, schedule: Q01DX005 (ip), vehicle: DMSO) was 108 % of control, the T/C (dose: 1.0 mg/kg/injection, schedule: Q01DX005 (ip), vehicle: DMSO) was 92 % of control and the T/C (dose: 2.0 mg/kg/injection, schedule: Q01DX005 (ip), vehicle: DMSO) was 100 % of control. The T/C (dose: 4.0 mg/kg/injection, schedule: Q01DX005 (ip), vehicle: Klucel (hydroxypropylcellulose) (HPC)) was 100 % of control, the T/C (dose: 6.25 mg/kg/injection, schedule: Q01DX005 (ip), vehicle: DMSO) was 119 % of control and the T/C (dose: 8.0 mg/kg/injection, schedule: Q01DX005 (ip), vehicle: Klucel (hydroxypropylcellulose) (HPC)) was 101 % of control. The T/C (dose: 12.5 mg/kg/injection, schedule: Q01DX005 (ip), vehicle: DMSO) was 114 % of control, the T/C (dose: 16.0 mg/kg/injection, schedule: Q01DX005 (ip), vehicle: Klucel (hydroxypropylcellulose) (HPC)) was 101 % of control and the T/C (dose: 32.0 mg/kg/injection, schedule: Q01DX005 (ip), vehicle: Klucel (hydroxypropylcellulose) (HPC)) was 87 % of control.
`CC(=NCc1ccccc1)/C(=N\O)C(=O)Nc1ccc(Cl)cc1` was tested, and the T/C (dose: 400.0 mg/kg/injection, schedule: Q04DX003 (ip), vehicle: saline with Tween-80) was 96 % of control.
In the case of `O=C1Nc2ccccc2/C1=N/N(c1ccccc1)c1ccccc1`, the T/C [1] is reported as 95 % of control, the T/C [2] is reported as 101 % of control and the T/C (dose: 200.0 mg/kg/injection, schedule: Q01DX005 (ip), vehicle: saline with Tween-80) is reported as 99 % of control.
`NCCCCCC(CCN)SCC1OC(n2cnc3c(N)ncnc32)C(O)C1O` (stereo not given) was tested, and the T/C (dose: 15.0 mg/kg/injection, schedule: Q01DX005 (ip), vehicle: saline with Tween-80) was 109 % of control, the T/C (dose: 30.0 mg/kg/injection, schedule: Q01DX005 (ip), vehicle: saline with Tween-80) was 103 % of control and the T/C [3] was 96 % of control.
With `CCc1cccc(C)c1NC(=O)C(=O)CC(=O)c1ccc(Cl)cc1Cl` the T/C [3] was 114 % of control, the T/C (dose: 120.0 mg/kg/injection, schedule: Q01DX005 (ip), vehicle: saline with Tween-80) was 116 % of control and the T/C (dose: 240.0 mg/kg/injection, schedule: Q01DX005 (ip), vehicle: saline with Tween-80) was 113 % of control.
In the case of `CN(C)CCCN1c2ccccc2Cc2ccccc21`, the T/C (dose: 12.5 mg/kg/injection, schedule: Q01DX005 (ip), vehicle: saline with Tween-80) is reported as 111 % of control, the T/C (dose: 25.0 mg/kg/injection, schedule: Q01DX005 (ip), vehicle: saline with Tween-80) is reported as 108 % of control and the T/C [1] is reported as 100 % of control and 111 % of control. The T/C [2] was 114 % of control.
With `O=c1c2ccccc2oc2nc3ccccc3nc12` the T/C [4] was 101 % of control and the T/C [5] was 103 % of control.
In the case of `CCn1c2nc(=O)[nH]c(=O)c-2cc2ccccc21`, the T/C (dose: 45.0 mg/kg/injection, schedule: Q01DX009 (ip), vehicle: saline with Tween-80) is reported as 113 % of control, the T/C (dose: 90.0 mg/kg/injection, schedule: Q01DX009 (ip), vehicle: saline with Tween-80) is reported as 103 % of control and the T/C (dose: 180.0 mg/kg/injection, schedule: Q01DX009 (ip), vehicle: saline with Tween-80) is reported as 101 % of control.
For `CC(C)[C@]12O[C@H]1[C@@H]1O[C@]13[C@]1(O[C@H]1C[C@H]1C4=C(C(=O)OC4)[C@@H](O)C[C@@]13C)[C@@H]2O`, the T/C (dose: 0.03 mg/kg/injection, schedule: Q01DX009 (ip), vehicle: saline + alcohol) was 100 % of control and 101 % of control and 119 % of control, the T/C (dose: 0.05 mg/kg/injection, schedule: Q01DX009 (ip), vehicle: saline + alcohol) was 117 % of control and the T/C (dose: 0.06 mg/kg/injection, schedule: Q01DX005 (ip), vehicle: saline + alcohol) was 110 % of control. The T/C (dose: 0.06 mg/kg/injection, schedule: Q01DX005 (iv), vehicle: saline + alcohol) was 107 % of control, the T/C (dose: 0.06 mg/kg/injection, schedule: Q01DX009 (ip), vehicle: saline + alcohol) was 117 % of control and the T/C (dose: 0.1 mg/kg/injection, schedule: Q01DX009 (ip), vehicle: saline + alcohol) was 124 % of control. The T/C (dose: 0.13 mg/kg/injection, schedule: Q01DX005 (ip), vehicle: saline + alcohol) was 122 % of control, the T/C (dose: 0.13 mg/kg/injection, schedule: Q01DX005 (iv), vehicle: saline + alcohol) was 108 % of control and the T/C (dose: 0.25 mg/kg/injection, schedule: Q01DX005 (iv), vehicle: saline + alcohol) was 108 % of control. For the same compound, the T/C (dose: 0.25 mg/kg/injection, schedule: Q01DX009 (ip), vehicle: saline + alcohol) was 157 % of control and 158 % of control and the T/C (dose: 0.5 mg/kg/injection, schedule: Q01DX005 (iv), vehicle: saline + alcohol) was 116 % of control.
For `NC(=O)c1c(Cl)cccc1Cl`, the T/C (dose: 12.5 mg/kg/injection, schedule: Q04DX003 (ip), vehicle: saline) was 101 % of control, the T/C (dose: 25.0 mg/kg/injection, schedule: Q04DX003 (ip), vehicle: saline) was 93 % of control and the T/C (dose: 50.0 mg/kg/injection, schedule: Q04DX003 (ip), vehicle: saline) was 99 % of control. The T/C (dose: 100.0 mg/kg/injection, schedule: Q04DX003 (ip), vehicle: saline) was 101 % of control.
`CCNC(=O)OCc1c(-c2ccccc2)nc2n1CCS2` was tested, and the T/C (dose: 6.25 mg/kg/injection, schedule: Q01DX001 (ip), vehicle: Klucel (hydroxypropylcellulose) (HPC)) was 104 % of control, the T/C (dose: 12.5 mg/kg/injection, schedule: Q01DX001 (ip), vehicle: Klucel (hydroxypropylcellulose) (HPC)) was 98 % of control and 115 % of control and the T/C (dose: 25.0 mg/kg/injection, schedule: Q01DX001 (ip), vehicle: Klucel (hydroxypropylcellulose) (HPC)) was 114 % of control and 93 % of control. The T/C (dose: 50.0 mg/kg/injection, schedule: Q01DX001 (ip), vehicle: Klucel (hydroxypropylcellulose) (HPC)) was 101 % of control and 106 % of control and the T/C (dose: 75.0 mg/kg/injection, schedule: Q01DX001 (ip), vehicle: Klucel (hydroxypropylcellulose) (HPC)) was 108 % of control.
`CC1(C)SC(C)(c2ccco2)N(c2nccs2)C1=O` (stereo not given) was tested, and the T/C [4] was 104 % of control and the T/C [5] was 104 % of control.
